Experimental data: patent US11691898B2, “Water treatment” (ITALMATCH CHEMICALS GB LIMITED, priority 2016, dated 2023)

Columns and labels:
[1] = tested on: Desulfovibrio vulgaris; assay: Log10 reduction in viable count of anaerobic bacteria in a high-TDS aqueous suspension; assay type: cell-based; settings: for Log10 Reduction Anaerobes*: pH 8.0, TDS 30,000 mg l^-1, versus control, 5 = complete kill, ppm active as per example; for effectiveness against anaerobes (in words): alone
Protocol: (§1) Aqueous systems inoculated with anaerobe and facultative anaerobe culture and having a total dissolved solids (TDS) concentration of 30,000 mg l^−1 were prepared and treated with treatment agents comprising: (a) tri n-butyl n-tetradecyl phosphonium chloride (TTPC) and (b) NaClO2.
(§2) A suspension of Desulfovibrio vulgaris plus Enterobacter aerogenes bacteria containing from 1×10^5 to 1×10^6 cells/mL was prepared in sterile pH 8 phosphate buffer containing sodium chloride to give the desired total dissolved solids (TDS) concentration. Aliquots of this suspension were dosed with the indicated concentrations of the compounds (a) and (b) with the concentrations being measured as ppm active. The mixtures were allowed to stand at room temperature. At the designated contact times, each mixture was sampled to determine the total number of viable cells of both Desulfovibrio vulgaris and Enterobacter aerogenes by serial 10-fold dilution into API RP 38 media vials and anaerobic acid producing media vials, respectively. The vials were incubated at 37° C. for 72 hours. Results were recorded as log10 reduction in the viable count versus the control.
(§3) The efficacy of the treatment agents was evaluated by measuring the Log10 Reduction of the anaerobic bacterium Desulfovibrio vulgaris and the facultative anaerobic bacterium Enterobacter aerogenes after contact times of 1 hour, 4 hours and 24 hours as detailed in Table 1. For TTPC the stated ppm value relates to the amount of TTPC added (active). For NaClO2 the stated ppm relates to the amount of NaClO2 added (active).

[2] = tested on: Enterobacter aerogenes; assay: Log10 reduction in viable count of facultative anaerobic bacteria in a high-TDS aqueous suspension; assay type: cell-based; settings: pH 8.0, TDS 30,000 mg l^-1, versus control, 6 = complete kill, ppm active as per example
Protocol: as §1, §2, §3

## [Na+].[O-][Cl+][O-] [11(comparative), NaClO2]
[1]; contact time 4 hours
  Log10 Reduction Anaerobes*: 0
[2]; contact time 4 hours
  Log10 Reduction Facultative Anaerobes**: 0

## CCCCCCCCCCCCCC[P+](CCCC)(CCCC)CCCC.[Cl-] [18(comparative), tri n-butyl n-tetradecyl phosphonium chloride]
[1]; contact time 24 hours
  Log10 Reduction Anaerobes*: 5
[2]; contact time 24 hours
  Log10 Reduction Facultative Anaerobes**: 6

## CCCCCCCCCCCCCC[P+](CCCC)(CCCC)CCCC.[Cl-] [10(comparative), tri n-butyl n-tetradecyl phosphonium chloride]
[1]; contact time 4 hours
  Log10 Reduction Anaerobes*: 5
[2]; contact time 4 hours
  Log10 Reduction Facultative Anaerobes**: 4

## CCCCCCCCCCCCCC[P+](CCCC)(CCCC)CCCC.[Cl-] [1(comparative), tri n-butyl n-tetradecyl phosphonium chloride]
[1]; contact time 1 hour
  Log10 Reduction Anaerobes*: 2
[2]; contact time 1 hour
  Log10 Reduction Facultative Anaerobes**: 0

## [Na+].[O-][Cl+][O-] [19(comparative), NaClO2]
[1]; contact time 24 hours
  Log10 Reduction Anaerobes*: 4
[2]; contact time 24 hours
  Log10 Reduction Facultative Anaerobes**: 0

## [Na+].[O-][Cl+][O-] [4(comparative), NaClO2]
[1]; contact time 1 hour
  Log10 Reduction Anaerobes*: 0
[2]; contact time 1 hour
  Log10 Reduction Facultative Anaerobes**: 0

## CCCCCCCCCCCCCC[P+](CCCC)(CCCC)CCCC.[Cl-] [17(comparative), tri n-butyl n-tetradecyl phosphonium chloride]
[1]; contact time 24 hours
  Log10 Reduction Anaerobes*: 5
[2]; contact time 24 hours
  Log10 Reduction Facultative Anaerobes**: 5

## CCCCCCCCCCCCCC[P+](CCCC)(CCCC)CCCC.[Cl-] [2(comparative), tri n-butyl n-tetradecyl phosphonium chloride]
[1]; contact time 1 hour
  Log10 Reduction Anaerobes*: 5
[2]; contact time 1 hour
  Log10 Reduction Facultative Anaerobes**: 3

## [Na+].[O-][Cl+][O-] [12(comparative), NaClO2]
[1]; contact time 4 hours
  Log10 Reduction Anaerobes*: 1
[2]; contact time 4 hours
  Log10 Reduction Facultative Anaerobes**: 0

## CCCCCCCCCCCCCC[P+](CCCC)(CCCC)CCCC.[Cl-] [9(comparative), tri n-butyl n-tetradecyl phosphonium chloride]
[1]; contact time 4 hours
  Log10 Reduction Anaerobes*: 5
[2]; contact time 4 hours
  Log10 Reduction Facultative Anaerobes**: 3

## [Na+].[O-][Cl+][O-] [NaClO2]
[1]; longer contact times
  effectiveness against anaerobes (in words): limited effectiveness
[1]; short contact times
  effectiveness against anaerobes (in words): ineffective
